Columns and labels:
Assay type in all cases: in vivo
[1] = system: barnyardgrass (Echinochloa crus-galli, ECHCG); assay: Postemergence herbicidal activity of mixtures under field conditions in wet-seeded rice, ECHCG
Description: (§1) Evaluation of Postemergence Herbicidal Activity of Mixtures under Field Conditions Methodology
(§2) Field trials were conducted in rice using standard herbicide small plot research methodology. Plot size was 2 square meters (m^2) using 1.6 meter (m) diameter rings placed into the rice paddy soil with capability for flooding to maintain good rice cultural practices and rice growing conditions. There were 3 replicates per treatment. Rice was Japonica type that was sown as wet-seeded rice (pre-germinated) into the saturated soil in the rings as per normal cultural practices. The rice crop was grown using normal cultural practices for fertilization, seeding, watering, flooding and maintenance to ensure good growth of the crop and the weeds under seeded rice conditions in Taiwan. Ring plot water conditions were maintained under saturated soil conditions after planting. Just prior to treatment application, any remaining plot water was drained to maintain saturated soil in ring plot. Treatments were applied by backpack using compressed air at 30 pounds per square inch (psi) using Flat Fan nozzles at a spray volume of 450 Liters/hectare (L/ha). Penoxsulam was applied as the Fencer® 25OD formulation. Glufosinate-ammonium was applied as the Basta® 135 SL formulation.
(§3) All treatments in the field trials were applied by spraying the treatments on the rice and weeds and evaluated at 7, 14, or 28 days after application (DAA). Commercially available products of penoxsulam (FENCER 25OD) and glufosinate-ammonium (BASTA 135 SL) were mixed in water and sprayed onto the rice and weeds with the appropriate formulated product amounts to treat 2 m^2 to achieve the desired application rates based on unit area of application (hectare).
(§4) The treated and control plots were rated blind at various intervals after application, with the last evaluation taken 28 days after application. Ratings were based on percent (%) visual weed control, where 0 corresponds to no control and 100 corresponds to complete control.
(§5) Colby's equation was used to determine the herbicidal effects expected from the mixtures (Colby, S. R. Calculation of the synergistic and antagonistic response of herbicide combinations. Weeds 1967 15, 20-22). Results are shown where P<0.05 according to Colby's method of analysis.
(§6) The following equation was used to calculate the expected activity of mixtures containing two active ingredients, A and B: Expected=A+B−(A×B/100)
(§7) A=observed efficacy of active ingredient A at the same concentration as used in the mixture;
(§8) B=observed efficacy of active ingredient B at the same concentration as used in the mixture.

[2] = system: smallflower umbrella sedge (Cyperus difformis, CYPDI); assay: Postemergence herbicidal activity of mixtures under field conditions in wet-seeded rice, CYPDI; settings: 14 DAA
Description: as §1, §2, §3, §4, §5, §6, §7, §8

[3] = system: monochoria (Monochoria vaginalis, MOOVA); assay: Postemergence herbicidal activity of mixtures under field conditions in wet-seeded rice, MOOVA; settings: 14 DAA
Description: as §1, §2, §3
The treated and control plots were rated blind at various intervals after application, with the last evaluation taken 28 days after application. Ratings were based on percent (%) visual weed control, where 0 corresponds to no control and 100 corresponds to complete control. […]

[4] = system: Japanese bulrush (Schoenoplectus juncoides, SCPJU); assay: Postemergence herbicidal activity of mixtures under field conditions in wet-seeded rice, SCPJU
Description: as §1, §2, §3, §4, §5, §6, §7, §8

[5] = 28 DAA, penoxsulam 5 grams ai/ha
[6] = 28 DAA, glufosinate-ammonium 35 grams ai/ha
[7] = 28 DAA, glufosinate-ammonium 70 grams ai/ha
[8] = 28 DAA, glufosinate-ammonium 140 grams ai/ha
[9] = glufosinate-ammonium 70 grams ai/ha

COc1cnc(OC)n2nc(NS(=O)(=O)c3c(OCC(F)F)cccc3C(F)(F)F)nc12 [Penoxsulam, 2-(2,2-difluoroethoxy)-N-(5,8-dimethoxy-[1,2,4]triazolo[1,5-c]pyrimidin-2-yl)-6-(trifluoromethyl)benzenesulfonamide]
ECHCG (% Control) Obs ([1]; 14 DAA, penoxsulam 5 grams ai/ha): 53% | ECHCG (% Control) Obs ([1]; 14 DAA, penoxsulam 10 grams ai/ha): 62% | ECHCG (% Control) Obs [1, 5]: 30% | ECHCG (% Control) Obs ([1]; 28 DAA, penoxsulam 10 grams ai/ha): 42% | ECHCG (% Control) Obs ([1]; 28 DAA, penoxsulam 20 grams ai/ha): 87% | CYPDI (% Control) Obs ([2]; penoxsulam 5 grams ai/ha): 73% | MOOVA (% Control) Obs ([3]; penoxsulam 5 grams ai/ha): 37% | SCPJU (% Control) Obs ([4]; 7 DAA, penoxsulam 5 grams ai/ha): 40% | SCPJU (% Control) Obs ([4]; 7 DAA, penoxsulam 20 grams ai/ha): 92% | SCPJU (% Control) Obs [4, 5]: 0%

2-amino-4-(hydroxymethylphosphinyl)butanoic acid [Glufosinate-ammonium]
ECHCG (% Control) Obs ([1]; 14 DAA, glufosinate-ammonium 35 grams ai/ha): 0% | ECHCG (% Control) Obs ([1]; 14 DAA, glufosinate-ammonium 70 grams ai/ha): 0% | ECHCG (% Control) Obs ([1]; 14 DAA, glufosinate-ammonium 140 grams ai/ha): 27% | ECHCG (% Control) Obs [1, 6]: 0% | ECHCG (% Control) Obs [1, 7]: 0% | ECHCG (% Control) Obs [1, 8]: 0% | ECHCG (% Control) Obs ([1]; 28 DAA, glufosinate-ammonium 280 grams ai/ha): 13% | CYPDI (% Control) Obs ([2]; glufosinate-ammonium 35 grams ai/ha): 0% | CYPDI (% Control) Obs [2, 9]: 0% | CYPDI (% Control) Obs ([2]; glufosinate-ammonium 140 grams ai/ha): 0% | MOOVA (% Control) Obs ([3]; glufosinate-ammonium 18 grams ai/ha): 0% | MOOVA (% Control) Obs [3, 9]: 0% | SCPJU (% Control) Obs ([4]; 7 DAA, glufosinate-ammonium 18 grams ai/ha): 0% | SCPJU (% Control) Obs ([4]; 7 DAA, glufosinate-ammonium 35 grams ai/ha): 0% | SCPJU (% Control) Obs ([4]; 7 DAA, glufosinate-ammonium 70 grams ai/ha): 0% | SCPJU (% Control) Obs ([4]; 7 DAA, glufosinate-ammonium 140 grams ai/ha): 0% | SCPJU (% Control) Obs ([4]; 28 DAA, glufosinate-ammonium 18 grams ai/ha): 0% | SCPJU (% Control) Obs [4, 6]: 0% | SCPJU (% Control) Obs [4, 7]: 0% | SCPJU (% Control) Obs [4, 8]: 0%
